{"source": "patent US20200375945A1", "about": "“INHALABLE FORMULATION OF A SOLUTION CONTAINING INDACATEROL MALEATE AND GLYCOPYRRONIUM BROMIDE” (priority 2019, published 2020)", "key": {"[1]": {"assay": "Aerodynamic particle size distribution on Next Generation Impactor (NGI)", "assay_type": "physicochemical", "details": "sample 2 sprayed with soft mist inhaler, NGI at 30 L/min", "method": "Sample 2 was sprayed with a soft mist inhaler. Aerodynamic particle size distribution of droplets of sample 2 was measured on Next Generation Impactor (NGI). Next Generation Impactor operated at a flow rate of 30 L/min was used for determination of particle size distribution. For each of the impactor experiments, the impactor collection stages were coated with a silicone oil. The aerodynamic particle size distribution is expressed in terms of mass median aerodynamic diameter (MMAD) and Geometric Standard Deviation (GSD)."}, "[2]": {"assay": "Tested concentration and assay of the active ingredients in the inhalation solution", "assay_type": "physicochemical", "details": "in the sample solutions (ethanol/water, benzalkonium chloride, edetate disodium dihydrate)"}}}
{"molecule": "CCc1cc2c(cc1CC)CC(NC[C@H](O)c1ccc(O)c3[nH]c(=O)ccc13)C2.O=C(O)/C=C\\C(=O)O", "note": "[Indacaterol maleate, 5-[(R)-2-(5,6-diethyl-indan-2-ylamino)-1-hydroxy-ethyl]-8-hydroxy-(1H)-quinolin-2-one]", "values": [{"measurement": "MMAD (mass median aerodynamic diameter)", "setting": "[1]", "value": 3.37, "unit": "μm"}, {"measurement": "Dissolution of the active in the solution", "setting": "[2]", "value": "completely dissolved"}]}
